Measured values as given in patent US6525021B1 (priority 1998, dated 2003).
Entries after “also recorded” stand apart in the source; their conditions may differ. Non-standard residues stand in square brackets, D forms with d. Residues, ends and D or L forms follow the SMILES beside them. *: point of attachment. X1 = CC(=O)N[C@@H]1[C@@H](O[C@@H]2O[C@H](CO)[C@H](O)[C@H](O)[C@H]2O)[C@@H](O)[C@@H](CO)O[C@@H]1*; pGlu = O=C1CC[C@@H](C(=O)O)N1

Assays:
[1] = molecular target: rat neurotensin type 1 receptor (rNTR1) (Rattus norvegicus, UniProt P20789); experiment: biochemical; format: binding
[2] = molecular target: solubilized mouse neurotensin type 3 receptor (mNTR3) (Mus musculus, UniProt Q6PHU5); experiment: biochemical; format: binding
[3] = molecular target: rat neurotensin type 2 receptor (rNTR2) (Rattus norvegicus, UniProt Q63384); experiment: biochemical; format: binding
[4] = molecular target: human neurotensin type 1 receptor (hNTR1) (Homo sapiens, UniProt P30989); experiment: biochemical; format: binding
rNTR2 = rNTR2 (Rattus norvegicus, UniProt Q63384); format: cell-based
rNTR1 = rNTR1 (Rattus norvegicus, UniProt P20789); experiment: cell-based; format: cell-based
[5] = design: species or system mice; details: mouse, in vivo

rNTR1, sequence (P20789 whole entry, looked up): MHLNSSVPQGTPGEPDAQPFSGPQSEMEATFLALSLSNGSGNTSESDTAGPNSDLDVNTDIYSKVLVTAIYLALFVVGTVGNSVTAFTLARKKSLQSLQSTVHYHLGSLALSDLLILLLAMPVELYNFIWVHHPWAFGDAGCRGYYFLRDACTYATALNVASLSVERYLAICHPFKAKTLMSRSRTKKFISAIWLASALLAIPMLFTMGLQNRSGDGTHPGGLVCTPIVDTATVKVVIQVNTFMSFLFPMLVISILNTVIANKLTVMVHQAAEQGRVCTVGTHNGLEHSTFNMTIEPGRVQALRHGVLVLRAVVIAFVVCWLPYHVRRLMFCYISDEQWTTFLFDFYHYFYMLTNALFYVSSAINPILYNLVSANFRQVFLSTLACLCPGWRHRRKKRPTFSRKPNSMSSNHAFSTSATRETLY
rNTR2, sequence (Q63384 whole entry, looked up): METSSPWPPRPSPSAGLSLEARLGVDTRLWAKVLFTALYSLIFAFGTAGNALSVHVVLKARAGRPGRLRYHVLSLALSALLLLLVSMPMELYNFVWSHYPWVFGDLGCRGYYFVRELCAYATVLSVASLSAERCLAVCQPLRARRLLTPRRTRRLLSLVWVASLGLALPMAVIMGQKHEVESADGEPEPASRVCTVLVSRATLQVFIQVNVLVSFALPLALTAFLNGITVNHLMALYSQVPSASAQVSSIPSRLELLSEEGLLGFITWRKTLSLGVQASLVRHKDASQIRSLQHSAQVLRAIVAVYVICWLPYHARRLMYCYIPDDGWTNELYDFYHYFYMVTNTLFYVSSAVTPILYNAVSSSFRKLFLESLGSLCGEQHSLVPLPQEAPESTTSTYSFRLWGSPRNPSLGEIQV
rat neurotensin type 2 receptor (rNTR2), sequence (Q63384 whole entry, looked up): as above
human neurotensin type 1 receptor (hNTR1), sequence (P30989 whole entry, looked up): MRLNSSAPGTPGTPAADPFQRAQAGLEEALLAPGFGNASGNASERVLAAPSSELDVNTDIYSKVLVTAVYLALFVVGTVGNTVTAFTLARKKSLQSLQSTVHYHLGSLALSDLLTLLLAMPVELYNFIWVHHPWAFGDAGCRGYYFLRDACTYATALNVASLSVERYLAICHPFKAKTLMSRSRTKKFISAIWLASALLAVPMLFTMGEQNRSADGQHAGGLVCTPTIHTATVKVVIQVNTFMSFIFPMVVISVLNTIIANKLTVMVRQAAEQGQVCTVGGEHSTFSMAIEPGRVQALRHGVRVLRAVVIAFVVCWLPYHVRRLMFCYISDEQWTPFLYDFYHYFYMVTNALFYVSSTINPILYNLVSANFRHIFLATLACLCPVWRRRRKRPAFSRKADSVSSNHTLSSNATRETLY
rat neurotensin type 1 receptor (rNTR1), sequence (P20789 whole entry, looked up): as the sequence (P20789 whole entry, looked up) above
solubilized mouse neurotensin type 3 receptor (mNTR3), sequence (Q6PHU5 74-825 limits assumed): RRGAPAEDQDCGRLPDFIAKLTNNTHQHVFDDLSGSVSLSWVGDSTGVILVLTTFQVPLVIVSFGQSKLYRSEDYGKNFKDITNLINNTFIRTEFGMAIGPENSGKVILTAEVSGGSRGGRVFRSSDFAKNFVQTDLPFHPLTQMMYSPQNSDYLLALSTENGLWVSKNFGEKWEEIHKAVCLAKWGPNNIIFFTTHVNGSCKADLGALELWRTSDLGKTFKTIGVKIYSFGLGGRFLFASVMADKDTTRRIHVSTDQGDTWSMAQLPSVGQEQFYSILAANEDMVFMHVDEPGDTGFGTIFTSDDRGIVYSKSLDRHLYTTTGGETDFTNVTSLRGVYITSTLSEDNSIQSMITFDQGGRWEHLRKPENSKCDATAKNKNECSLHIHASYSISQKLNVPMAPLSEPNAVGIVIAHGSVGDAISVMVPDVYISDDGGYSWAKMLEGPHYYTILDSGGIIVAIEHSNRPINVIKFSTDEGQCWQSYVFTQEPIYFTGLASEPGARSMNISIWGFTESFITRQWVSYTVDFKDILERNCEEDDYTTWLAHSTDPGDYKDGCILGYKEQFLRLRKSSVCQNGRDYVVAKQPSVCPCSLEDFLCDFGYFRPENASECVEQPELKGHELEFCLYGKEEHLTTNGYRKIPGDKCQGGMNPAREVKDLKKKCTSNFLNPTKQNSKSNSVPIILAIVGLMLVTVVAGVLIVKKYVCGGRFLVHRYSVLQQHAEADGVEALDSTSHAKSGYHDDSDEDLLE

Compound	IC50 [1]	IC50 [2]	IC50 [3]	IC50 [4]	agonist response (rNTR2)	EC50 (rNTR1)	agonistic efficacy compared with Neurotensin1-13 (rNTR1)	mode of action on CHO cells expressing the rNTR1 (rNTR1)	activity (onset and recovery time) compared with analog A [5]	time mice were drowsy [5]
CC[C@H](C)[C@H](NC(=O)[C@H](Cc1ccc(O)cc1)NC(=O)[C@@H]1CCCN1C(=O)[C@H](CCCCN)NC(=O)[C@H](CCCCN)NC(=O)[C@@H](NC(=O)[C@H](C)NC(=O)[C@H](CC(N)=O)NC(=O)[C@H](CO)NC(=O)CNC(=O)CNC(=O)[C@H](CCC(=O)O)NC(=O)[C@H](CCC(=O)O)NC(=O)[C@H](CO)NC(=O)[C@@H]1CCC(=O)N1)[C@@H](C)O[C@H]1O[C@H](CO)[C@H](O)[C@H](O[C@@H]2O[C@H](CO)[C@H](O)[C@H](O)[C@H]2O)[C@H]1NC(C)=O)C(=O)N[C@@H](CC(C)C)C(=O)O [contulakin-G] ([pGlu]SEEGGSNAT(X1)KKPYIL-OH)	524 nM	250 nM	730 nM	960 nM	No response; also recorded: absence of any agonistic effect	20 to 30 nM	approximately half	acted as agonists	–	–
Δ1-9-Ser10-contulakin-G containing the native glycosylation on Ser10 [analog B]	–	–	–	–	–	–	–	–	same activity	100 min
